What was measured:
Type in all cases: cell-based
FGFR2 V564F = target: T1, FGFR2 V564F (Homo sapiens, UniProt P21802, V564F); assay: Cell proliferation assay for Tel-FGFR2 V564F in BaF3; details: BaF3 cells expressing FGFR2 V564F fusion, 48 hrs, CellTiter Glo
T1 construct: P41212 (Transcription factor ETV6)
Method: (§1) By transfection, cell strains of the intracellular kinase domain fusion protein of TEL-FGFR2 WT or the intracellular domain fusion proteins containing FGFR2 V564, V564F, V564L, N549K and K659M mutations were stably expressed in Baf cells. On day 1, the cell suspension was plated into a 96-well plate containing growth medium (DMEM containing 1% Glutamax, 10% FBS and 1% Pen/Strep) at 2000-4000 cells/90 μL/per well, and then the mixture was incubated overnight at 37° C. and 5% CO2. On day 2, 10 μL of growth medium containing a 10-fold stock solution of test compound was added to the cell culture (9 dose points, 3× serial dilution, starting from 1 μM, finally 0.3% DMSO). After incubation at 37° C. and 5% CO2 for 48 hrs, 50 μL of CellTiter Glo (CTG) reagent was added to the cell-containing 96-well plate on day 3, and the plate was then incubated at room temperature for 10 min. Then relative light units (RLUs) were measured on a microplate reader with a luminescence detection module. RLU values were normalized to % survival, and concentration-response curves were plotted using Prism to calculate IC50 (nM).

FGFR3 V555M = target: T2, FGFR3 V555M (Homo sapiens, UniProt P22607, V555M); assay: Cell proliferation assay for FGFR3 V555M in BaF3; details: BaF3 cells expressing FGFR3 V555M fusion, 48 hrs, CellTiter Glo
T2 construct: P41212 (Transcription factor ETV6)
T2 sequence (P22607 472-761 V555M limits assumed): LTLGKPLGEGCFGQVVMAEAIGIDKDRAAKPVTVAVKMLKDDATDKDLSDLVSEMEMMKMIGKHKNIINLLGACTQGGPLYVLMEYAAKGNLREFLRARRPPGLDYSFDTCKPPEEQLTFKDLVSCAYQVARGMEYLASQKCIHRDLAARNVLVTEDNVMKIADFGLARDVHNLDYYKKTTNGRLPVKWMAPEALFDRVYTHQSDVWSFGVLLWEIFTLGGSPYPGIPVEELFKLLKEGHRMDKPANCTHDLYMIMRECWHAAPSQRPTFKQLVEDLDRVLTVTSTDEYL
Method: For the compounds of the Examples of the present invention, cell strains of TEL-FGFR3 WT intracellular kinase domain fusion protein or intracellular domain fusion protein containing FGFR3 V555M or FGFR3 N540K mutation were stably expressed in Baf cells by transfection and were used to determine the cell proliferation effect of BaF3-Tel-FGFR3 WT. FGFR3 V555M or FGFR3 N540K. The specific test process was as follows: • 1) The cell suspension was plated into a 96-well plate containing growth medium (DMEM containing 1% Glutamax, 10% FBS and 1% Pen/Strep) at 2000-4000 cells/90 μL/per well, and then the mixture was incubated overnight at 37° C. and 5% CO2. • 2) 10 μL of growth medium containing a 10-fold stock solution of test compound was added to the cell culture (9 dose points, 3× serial dilution, starting from 1 μM, finally 0.3% DMSO). • 3) The mixture was incubated at 37° C. and 5% CO2 for 48 hrs. • 4) 50 μL of CellTiter Glo (CTG) reagent was added to the cell-containing 96-well plate, and the plate was then incubated at room temperature for 10 min. • 5) Relative light units (RLUs) were measured on a microplate reader with a luminescence detection module. RLU values were normalized to % survival, and concentration-response curves were plotted using Prism to calculate IC50 (nM).

FGFR2 V564L = target: T3, FGFR2 V564L (Homo sapiens, UniProt P21802, V564L); assay: Cell proliferation assay for Tel-FGFR2 V564L in BaF3; details: BaF3 cells expressing FGFR2 V564L fusion, 48 hrs, CellTiter Glo
T3 construct: P41212 (Transcription factor ETV6)
T3 sequence (P21802 481-770 V564L limits assumed): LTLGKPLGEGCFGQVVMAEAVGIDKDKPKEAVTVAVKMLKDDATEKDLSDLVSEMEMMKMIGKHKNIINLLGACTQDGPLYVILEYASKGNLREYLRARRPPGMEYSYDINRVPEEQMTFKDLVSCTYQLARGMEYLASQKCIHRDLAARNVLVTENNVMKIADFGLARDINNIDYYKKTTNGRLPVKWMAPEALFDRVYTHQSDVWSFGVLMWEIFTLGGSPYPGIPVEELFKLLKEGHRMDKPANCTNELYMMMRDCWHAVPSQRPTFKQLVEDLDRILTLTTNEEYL
Method: as §1

FGFR2 N549K = target: T4, FGFR2 N549K (Homo sapiens, UniProt P21802, N549K); assay: Cell proliferation assay for Tel-FGFR2 N549K in BaF3; details: BaF3 cells expressing FGFR2 N549K fusion, 48 hrs, CellTiter Glo
T4 construct: P41212 (Transcription factor ETV6)
T4 sequence (P21802 481-770 N549K limits assumed): as the sequence (P21802 481-770 V564L limits assumed) above, with N69K, L84V counted along it
Method: as §1

T1 sequence (P21802 481-770 V564F limits assumed): as the sequence (P21802 481-770 V564L limits assumed) above, with L84F counted along it

Structure (SMILES): C=CC(=O)N1CC[C@H](n2cc(C#Cc3ccc4oc(C)nc4c3)c3c(N)ncnc32)C1 [Example 2, (S)-1-(3-(4-amino-5-((2-methylbenzo[d]oxazol-5-yl)ethynyl)-7H-pyrrolo[2,3-d]pyrimidin-7-yl)pyrrolidin-1-yl)prop-2-en-1-one]
- IC50 (FGFR2 V564F): ≤ 0.5 nM
- IC50 (FGFR3 V555M): 5 to 50 nM
- IC50 (FGFR2 V564L): 0.5 to 5 nM
- IC50 (FGFR2 N549K): 0.5 to 5 nM

Structure (SMILES): C=CC(=O)N1CC[C@H](n2cc(C#Cc3ccc4oc(CC)nc4c3)c3c(N)ncnc32)C1 [Example 3, (S)-1-(3-(4-amino-5-((2-ethylbenzo[d]oxazol-5-yl)ethynyl)-7H-pyrrolo[2,3-d]pyrimidin-7-yl)pyrrolidin-1-yl)prop-2-en-1-one]
- IC50 (FGFR2 V564F): 0.5 to 5 nM
- IC50 (FGFR3 V555M): 5 to 50 nM
- IC50 (FGFR2 V564L): 0.5 to 5 nM
- IC50 (FGFR2 N549K): 0.5 to 5 nM

Structure (SMILES): C=CC(=O)N1CC[C@H](n2cc(C#Cc3ccc4oc(C(C)C)nc4c3)c3c(N)ncnc32)C1 [Example 4, (S)-1-(3-(4-amino-5-((2-isopropylbenzo[d]oxazol-5-yl)ethynyl)-7H-pyrrolo[2,3-d]pyrimidin-7-yl)pyrrolidin-1-yl)prop-2-en-1-one]
- IC50 (FGFR2 V564F): 0.5 to 5 nM

Structure (SMILES): C=CC(=O)N1CC[C@H](n2cc(C#Cc3ccc4oc(C5CCC5)nc4c3)c3c(N)ncnc32)C1 [Example 5, (S)-1-(3-(4-amino-5-((2-cyclobutylbenzo[d]oxazol-5-yl)ethynyl)-7H-pyrrolo [2,3-d]pyrimidin-7-yl)pyrrolidin-1-yl)prop-2-en-1-one]
- IC50 (FGFR2 V564F): 0.5 to 5 nM

Structure (SMILES): C=CC(=O)N1CC[C@H](n2nc(C#Cc3cc4nc(NC)oc4cc3F)c3c(N)ncnc32)C1 [Example 29, (S)-1-(3-(4-amino-3-((6-fluoro-2-(methylamino)benzo[d]oxazol-5-yl)ethynyl)-1H-pyrazolo[3,4-d]pyrimidin-1-yl)pyrrolidin-1-yl) prop-2-en-1-one]
- IC50 (FGFR2 V564F): 0.5 to 5 nM
- IC50 (FGFR3 V555M): 5 to 50 nM

Structure (SMILES): C=CC(=O)N1CC[C@H](n2nc(C#Cc3cc4nc(NCC)oc4cc3F)c3c(N)ncnc32)C1 [Example 30, (S)-1-(3-(4-amino-3-((2-(ethylamino)-6-fluorobenzo [d]oxazol-5-yl)ethynyl)-1H-pyrazolo[3,4-d]pyrimidin-1-yl)pyrrolidin-1-yl) prop-2-en-1-one]
- IC50 (FGFR2 V564F): 0.5 to 5 nM
- IC50 (FGFR3 V555M): 5 to 50 nM

Structure (SMILES): C=CC(=O)N1CC[C@H](n2nc(C#Cc3cc4nc(N(C)C)oc4cc3F)c3c(N)ncnc32)C1 [Example 31, (S)-1-(3-(4-amino-3-((2-(dimethylamino)-6-fluoro-benzo[d]oxazol-5-yl)ethynyl)-1H-pyrazolo[3,4-d]pyrimidin-1-yl)pyrrolidin-1-yl)prop-2-en-1-one]
- IC50 (FGFR2 V564F): 0.5 to 5 nM
- IC50 (FGFR3 V555M): 5 to 50 nM

Structure (SMILES): C=CC(=O)N1CC[C@H](n2nc(C#Cc3cc4nc(NC5CC5)oc4cc3F)c3c(N)ncnc32)C1 [Example 33, (S)-1-(3-(4-amino-3-((2-(cyclopropylamino)-6-fluorobenzo[d]oxazol-5-yl)ethynyl)-1H-pyrazolo[3,4-d]pyrimidin-1-yl)pyrrolidin-1-yl)prop-2-en-1-one]
- IC50 (FGFR2 V564F): 0.5 to 5 nM
- IC50 (FGFR3 V555M): 50 to 500 nM

Structure (SMILES): C=CC(=O)N1CC[C@H](n2nc(C#Cc3cc4nc(N5CCC5)oc4cc3F)c3c(N)ncnc32)C1 [Example 34, (S)-1-(3-(4-amino-3-((2-(azetidin-1-yl)-6-fluorobenzo [d]oxazol-5-yl)ethynyl)-1H-pyrazolo[3,4-d]pyrimidin-1-yl)pyrrolidin-1-yl) prop-2-en-1-one]
- IC50 (FGFR2 V564F): 0.5 to 5 nM
- IC50 (FGFR3 V555M): 0.5 to 5 nM

Structure (SMILES): C=CC(=O)N1CC[C@H](n2nc(C#Cc3cc4nc(C5CC5)oc4cc3F)c3c(N)ncnc32)C1 [Example 35, (S)-1-(3-(4-amino-3-((2-cyclopropyl-6-fluorobenzo [d]oxazol-5-yl)ethynyl)-1H-pyrazolo[3,4-d]pyrimidin-1-yl)pyrrolidin-1-yl) prop-2-en-1-one]
- IC50 (FGFR2 V564F): ≤ 0.5 nM
- IC50 (FGFR3 V555M): 0.5 to 5 nM

Structure (SMILES): C=CC(=O)N1CC[C@H](n2nc(C#Cc3cc4nc(C5CCC5)oc4cc3F)c3c(N)ncnc32)C1 [Example 38, (S)-1-(3-(4-amino-3-((2-cyclobutyl-6-fluorobenzo [d]oxazol-5-yl)ethynyl)-1 H-pyrazolo[3,4-d]pyrimidin-1-yl)pyrrolidin-1-yl) prop-2-en-1-one]
- IC50 (FGFR2 V564F): 0.5 to 5 nM
- IC50 (FGFR3 V555M): 5 to 50 nM

Structure (SMILES): C=CC(=O)N1CC[C@H](n2nc(C#Cc3ccc4oc(C5(C)CC5)nc4c3)c3c(N)ncnc32)C1 [Example 39, (S)-1-(3-(4-amino-3-((2-(1-methylcyclopropyl)benzo [d]oxazol-5-yl)ethynyl)-1H-pyrazolo[3,4-d]pyrimidin-1-yl)pyrrolidin-1-yl) prop-2-en-1-one]
- IC50 (FGFR2 V564F): 0.5 to 5 nM

Structure (SMILES): C=CC(=O)N1CC[C@H](n2cc(C#Cc3ccc4sc(C5CC5)nc4c3)c3c(N)ncnc32)C1 [Example 43, (S)-1-(3-(4-amino-5-((2-cyclopropylbenzo[d]thiazol-5-yl)ethynyl)-7H-pyrrolo [2,3-d]pyrimidin-7-yl)pyrrolidin-1-yl)prop-2-en-1-one]
- IC50 (FGFR2 V564F): 0.5 to 5 nM

Structure (SMILES): C=CC(=O)N1CC[C@H](n2cc(C#Cc3cc4nc(C)sc4cc3F)c3c(N)ncnc32)C1 [Example 47, (S)-1-(3-(4-amino-5-((6-fluoro-2-methylbenzo[d]thiazol-5-yl)ethynyl)-7H-pyrrolo[2,3-d]pyrimidin-7-yl)pyrrolidin-1-yl)prop-2-en-1-one]
- IC50 (FGFR2 V564F): ≤ 0.5 nM
- IC50 (FGFR3 V555M): 5 to 50 nM

Structure (SMILES): C=CC(=O)N1CC[C@H](n2cc(C#Cc3cc4nc(C(F)F)sc4cc3F)c3c(N)ncnc32)C1 [Example 50, (S)-1-(3-(4-amino-5-((2-(difluoromethyl)-6-fluoro-benzo[d]thiazol-5-yl)ethynyl)-7H-pyrrolo[2,3-d]pyrimidin-7-yl)pyrrolidin-1-yl) prop-2-en-1-one]
- IC50 (FGFR2 V564F): 0.5 to 5 nM
- IC50 (FGFR3 V555M): 5 to 50 nM

Structure (SMILES): C=CC(=O)N1CC[C@H](n2nc(C#Cc3cc4nc(C(F)F)sc4cc3F)c3c(N)ncnc32)C1 [Example 60, (S)-1-(3-(4-amino-3-((2-(difluoromethyl)-6-fluoro-benzo[d]thiazol-5-yl)ethynyl)-1H-pyrazolo[3,4-d]pyrimidin-1-yl)pyrrolidin-1-yl)prop-2-en-1-one]
- IC50 (FGFR2 V564F): 0.5 to 5 nM

Structure (SMILES): C=CC(=O)N1CCC(c2cc(C#Cc3ccc4oc(C5CC5)nc4c3)c3c(N)ncnn23)C1 (centres unmarked) [Example 63, 1-(3-(4-amino-5-((2-cyclo-propylbenzo[d]oxazol-5-yl)ethynyl)pyrrolo[2,1-f][1,2,4]triazin-7-yl)pyrrolidin-1-yl)prop-2-en-1-one]
- IC50 (FGFR2 V564F): 0.5 to 5 nM
- IC50 (FGFR3 V555M): 5 to 50 nM

Structure (SMILES): C=CC(=O)N1CC[C@H](n2cc(C#Cc3cc4nc(C5CC5)oc4cc3F)c3c(N)ncnc32)C1 [Example 65, (S)-1-(3-(4-amino-5-((2-cyclopropyl-6-fluorobenzo [d]oxazol-5-yl)ethynyl)-7H-pyrrolo[2,3-d]pyrimidin-7-yl)pyrrolidin-1-yl)prop-2-en-1-one]
- IC50 (FGFR2 V564F): ≤ 0.5 nM
- IC50 (FGFR3 V555M): 0.5 to 5 nM

Structure (SMILES): C=CC(=O)N1CCC(c2cc(C#Cc3ccc4sc(C)nc4c3)c3c(N)ncnn23)C1 (centres unmarked) [Example 70, 1-(3-(4-amino-5-((2-methyl-benzo[d]thiazol-5-yl)ethynyl)pyrrolo[2,1-f][1,2,4]triazin-7-yl)pyrrolidin-1-yl) prop-2-en-1-one]
- IC50 (FGFR2 V564F): 0.5 to 5 nM

Structure (SMILES): C=CC(=O)N1CC[C@H](n2cc(C#Cc3cc4nc(C(F)(F)F)oc4cc3F)c3c(N)ncnc32)C1 [Example 72, (S)-1-(3-(4-amino-5-((6-fluoro-2-(trifluoromethyl)benzo[d]oxazol-5-yl)ethynyl)-7H-pyrrolo[2,3-d]pyrimidin-7-yl)pyrrolidin-1-yl) prop-2-en-1-one]
- IC50 (FGFR2 V564F): 5 to 50 nM
- IC50 (FGFR3 V555M): 50 to 500 nM

Structure (SMILES): C=CC(=O)N1CC[C@H](n2cc(C#Cc3c(F)cc4oc(N5CCC5)nc4c3F)c3c(N)ncnc32)C1 [Example 73, (S)-1-(3-(4-amino-5-((2-(azetidin-1-yl)-4,6-difluoro-benzo[d]oxazol-5-yl)ethynyl)-7H-pyrrolo[2,3-d]pyrimidin-7-yl)pyrrolidin-1-yl) prop-2-en-1-one]
- IC50 (FGFR2 V564F): ≤ 0.5 nM
- IC50 (FGFR3 V555M): 0.5 to 5 nM

Structure (SMILES): C=CC(=O)N1CC[C@H](n2cc(C#Cc3ccc4oc(C(F)(F)F)nc4c3)c3c(N)ncnc32)C1 [Example 76, (S)-1-(3-(4-amino-5-((2-(trifluoromethyl)benzo[d]oxazol-5-yl)ethynyl)-7H-pyrrolo[2,3-d]pyrimidin-7-yl)pyrrolidin-1-yl)prop-2-en-1-one]
- IC50 (FGFR3 V555M): 50 to 500 nM
